Assay results from patent publication US20080214582A1, “Purine Derivatives as Inhibitors of Receptor Tyrosine Kinase Activity” (priority 2005, published 2008).

Tests used:
Tie-2 kinase = Tie-2 kinase (Homo sapiens, UniProt Q02763); assay: Tie-2 kinase inhibition (flashplate, poly(Glu,Tyr), 33P-ATP); type: biochemical
Protocol: The TIE-2 tests can be carried out, for example, analogously to the methods indicated in WO 02/44156.
The assay determines the inhibiting activity of the substances to be tested in the phosphorylation of the substrate poly(Glu, Tyr) by Tie-2 kinase in the presence of radioactive ^33P-ATP. The phosphorylated substrate binds to the surface of a “flashplate” microtitre plate during the incubation time. After removal of the reaction mixture, the microtitre plate is washed a number of times and the radioactivity on its surface is subsequently measured. An inhibiting effect of the substances to be measured results in lower radioactivity compared with an undisturbed enzymatic reaction.

VEGFR (KDR) = molecular target: T1, VEGFR (KDR) (Homo sapiens, UniProt P35968); assay: VEGF receptor kinase assay (pEY substrate, 33P incorporation); type: biochemical; settings: kinase inhibition
T1 construct: cloning the cytoplasmic domain of the KDR kinase as an in frame fusion at the carboxyl terminus of the GST gene; made in house; host or cells: Spodoptera frugiperda Sf21 insect cells, baculovirus vector pAcG2T
Protocol: VEGF receptor kinase activity is measured by incorporation of radiolabelled phosphate into 4:1 polyglutamic acid/tyrosine substrate (pEY). The phosphorylated pEY product is trapped on a filter membrane and the incorporation of radiolabelled phosphate is quantified by scintillation counting.
The intracellular tyrosine kinase domains of human KDR (Terman, B. I. et al. Oncogene (1991) Vol. 6, pp. 1677-1683.) and Flt-1 (Shibuya, M. et al. Oncogene (1990) Vol. 5, pp. 519-524) were cloned as glutathione S-transferase (GST) gene fusion proteins. This was accomplished by cloning the cytoplasmic domain of the KDR kinase as an in frame fusion at the carboxyl terminus of the GST gene. Soluble recombinant GST-kinase domain fusion proteins were expressed in Spodoptera frugiperda (Sf21) insect cells (Invitrogen) using a baculovirus expression vector (pAcG2T, Pharmingen).
1. Sf21 cells were infected with recombinant virus at a multiplicity of infection of 5 virus particles/cell and grown at 27° C. for 48 hours. 2. All steps were performed at 4° C. Infected cells were harvested by centrifugation at 1000×g and lysed at 4° C. for 30 minutes with 1/10 volume of lysis buffer followed by centrifugation at 100000×g for 1 hour. The supernatant was then passed over a glutathione Sepharose acid (Pharmacia) equilibrated with lysis buffer and washed with 5 volumes of the same buffer followed by 5 volumes of wash buffer. Recombinant GST-KDR protein was eluted with wash buffer/10 mM reduced glutathione (Sigma) and dialysed against dialysis buffer.
1. Add 5 μl of inhibitor or control to the assay in 50% DMSO. 2. Add 35 μl of reaction mixture containing 5 μl of 10× reaction buffer, 5 μl of 25 mM ATP/10 μCi[^33P]ATP (Amersham) and 5 μl of 10× substrate. 3. Start the reaction by the addition of 10 μl of KDR (25 nM) in enzyme dilution buffer. 4. Mix and incubate at room temperature for 15 minutes. 5. Stop the reaction by the addition of 50 μl of stop solution. 6. Incubate at 4° C. for 15 minutes. 7. Transfer a 90 μl aliquot to filter plate. 8. Aspirate and wash 3 times with wash solution. 9. Add 30 μl of scintillation cocktail, seal plate and count in a Wallace Microbeta scintillation counter.

T1 sequence (P35968 786-1356 limits assumed): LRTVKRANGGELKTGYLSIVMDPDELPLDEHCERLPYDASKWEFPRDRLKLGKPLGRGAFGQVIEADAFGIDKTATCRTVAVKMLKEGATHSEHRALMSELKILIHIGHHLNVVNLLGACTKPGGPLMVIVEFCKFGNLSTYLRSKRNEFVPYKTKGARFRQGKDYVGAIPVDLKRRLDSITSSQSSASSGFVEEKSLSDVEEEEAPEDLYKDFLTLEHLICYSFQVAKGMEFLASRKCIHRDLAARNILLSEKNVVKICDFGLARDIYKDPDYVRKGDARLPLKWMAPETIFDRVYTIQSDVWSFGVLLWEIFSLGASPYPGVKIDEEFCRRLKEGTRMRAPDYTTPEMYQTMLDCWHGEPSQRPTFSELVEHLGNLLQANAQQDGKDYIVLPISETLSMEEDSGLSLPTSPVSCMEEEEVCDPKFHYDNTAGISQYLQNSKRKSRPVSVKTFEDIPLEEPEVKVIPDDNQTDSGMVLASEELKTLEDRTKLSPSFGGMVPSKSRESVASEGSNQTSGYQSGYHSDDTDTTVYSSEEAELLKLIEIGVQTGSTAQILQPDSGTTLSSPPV
Tie-2 kinase, sequence (Q02763 23-1124): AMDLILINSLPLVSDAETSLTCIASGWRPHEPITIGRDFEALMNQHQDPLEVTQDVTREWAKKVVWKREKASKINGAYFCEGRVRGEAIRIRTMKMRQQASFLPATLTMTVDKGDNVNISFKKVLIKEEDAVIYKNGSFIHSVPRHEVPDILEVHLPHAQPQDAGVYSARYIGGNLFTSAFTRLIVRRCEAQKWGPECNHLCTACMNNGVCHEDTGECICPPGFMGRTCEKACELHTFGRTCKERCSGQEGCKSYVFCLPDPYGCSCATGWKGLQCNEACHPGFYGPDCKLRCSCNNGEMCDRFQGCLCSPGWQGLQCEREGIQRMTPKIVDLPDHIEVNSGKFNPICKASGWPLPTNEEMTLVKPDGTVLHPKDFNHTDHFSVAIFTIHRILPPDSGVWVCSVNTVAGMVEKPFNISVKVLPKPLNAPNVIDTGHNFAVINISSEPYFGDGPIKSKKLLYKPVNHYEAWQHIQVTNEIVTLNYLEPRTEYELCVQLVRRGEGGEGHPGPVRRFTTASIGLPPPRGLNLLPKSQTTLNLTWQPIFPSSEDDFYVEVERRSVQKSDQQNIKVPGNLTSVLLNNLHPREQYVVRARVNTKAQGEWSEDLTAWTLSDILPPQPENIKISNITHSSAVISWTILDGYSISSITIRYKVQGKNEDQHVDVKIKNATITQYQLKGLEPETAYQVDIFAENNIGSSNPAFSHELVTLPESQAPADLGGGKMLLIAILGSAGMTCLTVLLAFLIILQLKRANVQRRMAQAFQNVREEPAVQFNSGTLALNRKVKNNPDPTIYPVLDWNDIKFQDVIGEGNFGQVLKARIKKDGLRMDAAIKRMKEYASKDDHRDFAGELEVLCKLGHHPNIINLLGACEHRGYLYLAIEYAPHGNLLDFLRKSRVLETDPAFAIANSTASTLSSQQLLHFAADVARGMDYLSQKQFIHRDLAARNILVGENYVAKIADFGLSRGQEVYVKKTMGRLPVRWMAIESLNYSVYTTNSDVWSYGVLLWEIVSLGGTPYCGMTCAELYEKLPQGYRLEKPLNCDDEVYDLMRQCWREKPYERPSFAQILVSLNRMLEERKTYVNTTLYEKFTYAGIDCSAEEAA

| SMILES | IC50 (Tie-2 kinase) | IC50 (VEGFR (KDR)) |
| --- | --- | --- |
| Nc1ncnc2c1ncn2-c1ccc(NC(=O)Nc2cc(C(F)(F)F)ccc2OC2CCNC2)cc1 (stereo not shown) [Compound 1, 1-[4-(6-aminopurin-9-yl)phenyl]-3-[2-(pyrrolidin-3-yloxy)-5-trifluoromethylphenyl]urea] | 34.3 nM | 88 nM |
| Nc1ncnc2c1ncn2-c1ccc(NC(=O)Nc2cccc(C(F)(F)F)c2)cc1 [Compound 2, 1-[4-(6-aminopurin-9-yl)phenyl]-3-(3-trifluoromethylphenyl)urea] | 14 nM | 3.6 nM |
| Nc1ncnc2c1ncn2-c1ccc(NC(=O)Nc2cc(C(F)(F)F)ccc2F)cc1 [Compound 4, 1-[4-(6-aminopurin-9-yl)phenyl]-3-(2-fluoro-5-trifluoromethylphenyl)urea] | 49 nM | 5.7 nM |
| Nc1ncnc2c1ncn2-c1ccc(NC(=O)Nc2cccc(OC(F)(F)F)c2)cc1 [Compound 5, 1-[4-(6-aminopurin-9-yl)phenyl]-3-(3-trifluoromethoxyphenyl)urea] | 35 nM | 5 nM |
| Nc1ncnc2c1ncn2-c1ccc(NC(=O)Nc2cc(C(F)(F)F)ccn2)cc1 [Compound 6, 1-[4-(6-aminopurin-9-yl)phenyl]-3-(4-trifluoromethylpyridin-2-yl)urea] | 100 nM | 4.6 nM |
| Nc1ncnc2c1ncn2-c1ccc(NC(=O)Nc2cc(C(F)(F)F)ccc2-n2cncn2)cc1 [Compound 9, 1-[4-(6-aminopurin-9-yl)phenyl]-3-(2-[1,2,4]triazol-1-yl-5-trifluoromethylphenyl)urea] | 12.5 nM | 7.7 nM |
| Nc1ncnc2c1ncn2-c1ccc(NC(=O)Nc2ccc(OC3CCNC3)c(C(F)(F)F)c2)cc1 (stereo not shown) [Compound 11, 1-[4-(6-aminopurin-9-yl)phenyl]-3-[4-(pyrrolidin-3-yloxy)-3-trifluoromethylphenyl]urea] | 110 nM | 4.4 nM |
| CC(C)(C)c1cc(NC(=O)Nc2ccc(-n3cnc4c(N)ncnc43)cc2)no1 [Compound 15, 1-[4-(6-aminopurin-9-yl)phenyl]-3-(5-tert-butylisoxazol-3-yl)urea] | 19.5 nM | 2 nM |
